For six compounds, inhibition results are on record in patent publication US20260184663A1, “INDENE COMPOUNDS, PHARMACEUTICAL COMPOSITIONS THEREOF, AND THEIR THERAPEUTIC APPLICATIONS” (NucMito Pharmaceuticals co. Ltd., priority 2022, published 2026).

Holding throughout (format): cell-based
For one test, the system named is HeLa (cervical cancer). The experiment in a line: Antiproliferative activity (CCK-8 cell viability), HeLa. As to conditions: Homo sapiens, 72 h, read-out: Antiproliferative activity in cancerous cells, HELA (inhibition of cell growth); for inhibition at 3.3 µM: Compound concentration: 3.3 μM; for inhibition at 10 µM: Compound concentration: 10 μM. The gist of the method:
(§1)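 Cells were seeded at 2,000-5,000/well (HeLa in MEM, HepG2 and SW480 in DMEM, A549 in F-12K, all with 10% FBS) and treated with compound at 3.3, 10 or 30 μM for 72 h at 37° C. CCK-8 was added for 4 h, absorbance was read at 450 nm, and viability was expressed relative to DMSO-treated wells.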

The test system of the next test is SW480 (colon cancer). Briefly: Antiproliferative activity (CCK-8 cell viability), SW480. As to conditions: Homo sapiens, 72 h; for inhibition at 3.3 µM: Compound concentration: 3.3 μM; for inhibition at 10 µM: Compound concentration: 10 μM; for inhibition at 30 µM: Compound concentration: 30 μM. The gist of the method: as §1
The test system of test [1] is B16F10 (malignant melanoma). The experiment in a line: Antiproliferative activity (CCK-8 cell viability), B16F10. As to conditions: Mus musculus, 72 h, read-out: Antiproliferative activity in cancerous cells, B16F10 (inhibition of cell growth); for inhibition at 3.3 µM: B16-F10, Compound concentration: 3.3 μM; for inhibition at 10 µM: B16-F10, Compound concentration: 10 μM. In short, it runs like this:
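Attached B16F10 cells in 96-well plates were incubated with compound at 37° C for 72 h, followed by 10 μL CCK-8 reagent per well and a further 4 h incubation. A multi-well plate reader measured absorbance at 450 nm. Percent viability across replicates was calculated against DMSO vehicle-treated cells.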

Test [2] deals with A549 (lung adenocarcinoma). Briefly: Antiproliferative activity (CCK-8 cell viability), A549. The note with it: Homo sapiens, 72 h; for inhibition at 3.3 µM: Compound concentration: 3.3 μM; for inhibition at 10 µM: Compound concentration: 10 μM; for inhibition at 30 µM: Compound concentration: 30 μM. In short, it runs like this:
as §1

In test [3] the test system is A431 (epidermoid carcinoma). Briefly: Antiproliferative activity (CCK-8 cell viability), A431. The note with it: Homo sapiens, 72 h; for inhibition at 3.3 µM: A-431, Compound concentration: 3.3 μM; for inhibition at 10 µM: A-431, Compound concentration: 10 μM; for inhibition at 30 µM: A-431, Compound concentration: 30 μM. In short, it runs like this:
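Cell viability of compound-treated A431 cells was measured with a Cell Counting Kit-8. Each well received 10 μL of CCK-8 after 72 h of compound exposure, followed by 4 h incubation at 37° C. and a 450 nm plate-reader measurement. Percent viability was calculated relative to DMSO controls across replicates.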

For another test, the system named is HepG2 (liver cancer). Briefly: Antiproliferative activity (CCK-8 cell viability), HepG2. The note with it: Homo sapiens, 72 h; for inhibition at 3.3 µM: Compound concentration: 3.3 μM; for inhibition at 10 µM: Compound concentration: 10 μM; for inhibition at 30 µM: Compound concentration: 30 μM. In short, it runs like this:
as §1

Test [4] concerns MDA-MB-231 (breast cancer). The experiment in a line: Antiproliferative activity (CCK-8 cell viability), MDA-MB-231. As to conditions: Homo sapiens, 72 h; for inhibition at 3.3 µM: Compound concentration: 3.3 μM; for inhibition at 10 µM: Compound concentration: 10 μM; for inhibition at 30 µM: Compound concentration: 30 μM. The gist of the method: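 In this CCK-8 viability assay, MDA-MB-231 cells maintained in Dulbecco's modified Eagle's medium containing 10% fetal bovine serum were placed in 96-well plates (2,000-5,000 cells/well) and treated with compound for 72 h at 37° C. A 4 h incubation with 10 μL CCK-8 followed, plates were read at 450 nm, and viability was expressed against DMSO vehicle wells across replicates.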

Setting [5] is: read-out: Antiproliferative activity in cancerous cells, SW480 (inhibition of cell growth).
Where [6] appears, read: read-out: Antiproliferative activity in cancerous cells, A549 (inhibition of cell growth).
Setting [7] is: read-out: Antiproliferative activity in cancerous cells, A431 (inhibition of cell growth).
The mark [8] stands for this setting: read-out: Antiproliferative activity in cancerous cells, HepG2 (inhibition of cell growth).
Where [9] appears, read: read-out: Antiproliferative activity in cancerous cells, MDA-MB-231 (inhibition of cell growth).

Like-named read-outs stand apart in the source and are kept apart here. Where only a bound is given, the exact number is not on record here.

On to `CC1=C(CC(=O)O)c2cc(I)ccc2/C1=C\c1ccc(Oc2ccc(F)cc2)cc1` [C28, (Z)-2-(1-(4-(4-Fluorophenoxy)benzylidene)-5-iodo-2-methyl-1H-inden-3-yl)-acetic acid], for which the inhibition at 3.3 µM in the test on HeLa (cervical cancer) was 30 to 50%; with SW480 (colon cancer) (setting [5]), less than 30%; in test [1], 30 to 50%; in test [2] (setting [6]) it was 30 to 50%; in test [3] (setting [7]) it was less than 30%; with HepG2 (liver cancer) (setting [8]), 30 to 50%. Further, in test [4] (setting [9]), the inhibition at 3.3 µM was less than 30%. In addition, the inhibition at 10 µM (in the test with HeLa (cervical cancer); in the test with SW480 (colon cancer) (setting [5]); in test [1]; in test [2] (setting [6]); in test [3] (setting [7]); in the test with HepG2 (liver cancer) (setting [8])) was no less than 50% each time. Besides, in test [4] (setting [9]), the inhibition at 10 µM is no less than 50%.

Regarding `CC1=C(CC(=O)O)c2cc(F)ccc2/C1=C\c1ccc(COCc2ccc(C(F)(F)F)cc2)cc1` [B111, (Z)-2-(5-Fluoro-2-methyl-1-(4-(((4-(trifluoromethyl)benzyl)oxy)methyl)-benzylidene)-1H-inden-3-yl)acetic acid], the inhibition at 3.3 µM is no less than 50% in the test on HeLa (cervical cancer); less than 30% in the test with SW480 (colon cancer) (setting [5]); 30 to 50% in test [1]; 30 to 50% in test [2] (setting [6]); less than 30% in test [3] (setting [7]); less than 30% with HepG2 (liver cancer) (setting [8]). Besides, the inhibition at 3.3 µM in test [4] (setting [9]) lay within 30 to 50%. In addition, the inhibition at 10 µM (with HeLa (cervical cancer); with SW480 (colon cancer) (setting [5]); in test [1]; in test [2] (setting [6]); in test [3] (setting [7]); in the test on HepG2 (liver cancer) (setting [8])) was no less than 50% in each case. Besides, the inhibition at 10 µM in test [4] (setting [9]) was no less than 50%.

For the compound `CCc1ccc(Oc2ccc(/C=C3\C(C)=C(CC(=O)O)c4cc(Cl)ccc43)cc2)cc1` [E31, (E)-2-(5-Chloro-1-(4-(4-ethylphenoxy)benzylidene)-2-methyl-1H-inden-3-yl)acetic acid], the inhibition at 3.3 µM in the test with HeLa (cervical cancer) is no less than 50%; in the test with SW480 (colon cancer) (setting [5]), 30 to 50%; in test [1], 30 to 50%; in test [2] (setting [6]) it was no less than 50%; in test [3] (setting [7]), no less than 50%; in the test on HepG2 (liver cancer) (setting [8]), less than 30%. Moreover, the inhibition at 3.3 µM in test [4] (setting [9]) is no less than 50%. In addition, the inhibition at 10 µM in the test on HeLa (cervical cancer) is no less than 50%; in the test on SW480 (colon cancer) (setting [5]), 30 to 50%; in test [1], no less than 50%; in test [2] (setting [6]), no less than 50%; in test [3] (setting [7]), no less than 50%; with HepG2 (liver cancer) (setting [8]), no less than 50%. In addition, the inhibition at 10 µM in test [4] (setting [9]) is no less than 50%. In addition, the inhibition at 30 µM with HeLa (cervical cancer) (Compound concentration: 30 μM) is no less than 50%; in the test on SW480 (colon cancer) (setting [5]), no less than 50%; in test [1] (B16-F10, Compound concentration: 30 μM), no less than 50%; in test [2] (setting [6]), no less than 50%; in test [3] (setting [7]), no less than 50%; with HepG2 (liver cancer) (setting [8]) it was no less than 50%. Besides, the inhibition at 30 µM in test [4] (setting [9]) was no less than 50%.

Regarding `CC1=C(CC(=O)O)c2cc(F)ccc2/C1=C\c1ccc(COCc2ccc(C)cc2)cc1` [B102, (Z)-2-(5-Fluoro-2-methyl-1-(4-(((4-methylbenzyl)oxy)methyl)benzylidene)-1H-inden-3-yl)acetic acid], the inhibition at 3.3 µM in the test on HeLa (cervical cancer) is less than 30%; with SW480 (colon cancer) (setting [5]), less than 30%; in test [1], less than 30%; in test [2] (setting [6]), less than 30%; in test [3] (setting [7]), no less than 50%; with HepG2 (liver cancer) (setting [8]) it was 30 to 50%. Moreover, the inhibition at 3.3 µM in test [4] (setting [9]) is 30 to 50%. The inhibition at 10 µM (in the test on HeLa (cervical cancer); in the test with SW480 (colon cancer) (setting [5]); in test [1]; in test [2] (setting [6]); in test [3] (setting [7]); in the test with HepG2 (liver cancer) (setting [8])) was no less than 50% throughout. Moreover, the inhibition at 10 µM in test [4] (setting [9]) was no less than 50%.

As to `CC1=C(CC(=O)O)c2cc(F)ccc2/C1=C\c1cccc(Oc2ccc(C)cc2)c1` [C96, (Z)-2-(5-Fluoro-2-methyl-1-(3-(p-tolyloxy)benzylidene)-1H-inden-3-yl)acetic acid], the inhibition at 3.3 µM was 30 to 50% in the test with HeLa (cervical cancer); less than 30% with SW480 (colon cancer) (setting [5]); 30 to 50% in test [1]; less than 30% in test [2] (setting [6]); no less than 50% in test [3] (setting [7]); 30 to 50% in the test with HepG2 (liver cancer) (setting [8]). The inhibition at 3.3 µM in test [4] (setting [9]) was less than 30%. Further, the inhibition at 10 µM was no less than 50% in the test on HeLa (cervical cancer); less than 30% with SW480 (colon cancer) (setting [5]); 30 to 50% in test [1]; no less than 50% in test [2] (setting [6]); no less than 50% in test [3] (setting [7]); no less than 50% in the test on HepG2 (liver cancer) (setting [8]). Moreover, the inhibition at 10 µM in test [4] (setting [9]) is less than 30%.

Turning to `CC1=C(CCOC(=O)n2ccnc2)c2cc(F)ccc2/C1=C\c1ccc(Oc2ccc(F)cc2)cc1` [A204, (Z)-2-(5-Fluoro-1-(4-(4-fluorophenoxy)benzylidene)-2-methyl-1H-inden-3-yl)ethyl 1H-imidazole-1-carboxylate], the inhibition at 3.3 µM (in the test on HeLa (cervical cancer); in the test with SW480 (colon cancer) (setting [5]); in test [1]; in test [2] (setting [6]); in test [3] (setting [7]); in the test with HepG2 (liver cancer) (setting [8])) was less than 30% in each case. Also, in test [4] (setting [9]), the inhibition at 3.3 µM was less than 30%. In addition, the inhibition at 10 µM (in the test with HeLa (cervical cancer); with SW480 (colon cancer) (setting [5]); in test [1]; in test [2] (setting [6]); in test [3] (setting [7]); in the test on HepG2 (liver cancer) (setting [8])) was less than 30% throughout. In addition, the inhibition at 10 µM in test [4] (setting [9]) is less than 30%. The inhibition at 30 µM in the test with SW480 (colon cancer) (read-out: Antiproliferative activity in cancerous cells, SW480) was 30 to 50%; in test [2] (read-out: Antiproliferative activity in cancerous cells, A549), 30 to 50%; in test [3] (read-out: Antiproliferative activity in cancerous cells, A431), less than 30%; in the test with HepG2 (liver cancer) (read-out: Antiproliferative activity in cancerous cells, HepG2) it was less than 30%; in test [4] (read-out: Antiproliferative activity in cancerous cells, MDA-MB-231), 30 to 50%.
